From patent publication US10703757B2, “Compounds and methods for CDK8 modulation and indications therefor” (Plexxikon Inc., priority 2016, dated 2020)

Experiments:
[1] = test system: CDK8 (phosphorylation of STAT1 at serine 727 in A549 cells); assay: Cell based Phospho-STAT1 assay (IFNγ-stimulated A549 cells, AlphaLISA); conditions: Homo sapiens, A549, A549 cells, phospho-STAT1 after IFNγ stimulation
Method in brief: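 A549 cells given serial compound dilutions for 1 h at 37 °C, then stimulated with IFNγ at 10 ng/mL final for 30 min. Lysate STAT1 Ser727 phosphorylation measured by AlphaLISA; % inhibition vs stimulated/unstimulated DMSO controls, IC50 by nonlinear regression.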

[2] = test system: CDK8 (TCF/LEF luciferase reporter in HCT116 cells); assay: Cell based TCF/LEF reporter assay (HCT116+TCF/LEF luciferase); conditions: Homo sapiens, HCT-116, 24 h
Method in brief: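 HCT116 cells stably carrying a TCF/LEF-luciferase reporter (endogenous mutant β-catenin), seeded overnight, then exposed to serial compound dilutions for 24 h at 37 °C. Luminescence normalized to CellTiter-Fluor viability signal. % inhibition relative to DMSO and 10 uM CCT251545 controls, with IC50 from nonlinear regression.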

| Compound | IC50 [1] [µM] | IC50 [2] [µM] |
| --- | --- | --- |
| N#CC1CC=C(c2nccn3ncc(-c4ccc(OCC5CC5)c(Cl)c4)c23)CC1 (stereo not shown) [Compound P-0038, 4-(3-(3-chloro-4-(cyclopropyl-methoxy)phenyl)pyrazolo[1,5-a]pyrazin-4-yl)cyclohex-3-ene-1-carbonitrile] | 0.0001 to 0.1 | 0.0001 to 0.1 |
| CC(C)(C#Cc1cccn2ncc(-c3ccc(-c4cnn(CCF)c4)cc3)c12)C(N)=O [Compound P-0466, 4-(3-(4-(1-(2-fluoroethyl)-1H-pyrazol-4-yl)phenyl)pyrazolo[1,5-a]pyridin-4-yl)-2,2-dimethylbut-3-ynamide] | 0.0001 to 0.1 | 0.0001 to 0.1 |
| Cn1cc(-c2ccc(-c3cnn4cccc(C5=CCC(C#N)CC5)c34)cc2)cn1 (stereo not shown) [Compound P-0452, 4-(3-(4-(1-methyl-1H-pyrazol-4-yl)phenyl)pyrazolo[1,5-a]pyridin-4-yl)cyclohex-3-ene-1-carbonitrile] | 0.0001 to 0.1 | 0.0001 to 0.1 |
| COCCn1cc(-c2ccc(-c3cnn4cccc(C#CC(C)(C)C(N)=O)c34)cc2)cn1 [Compound P-0469, 4-(3-(4-(1-(2-methoxyethyl)-1H-pyrazol-4-yl)phenyl)pyrazolo[1,5-a]pyridin-4-yl)-2,2-dimethylbut-3-ynamide] | 0.0001 to 0.1 | 0.0001 to 0.1 |
| Cc1nnc(-c2ccc(-c3cnn4cccc(C5CCC(C#N)CC5)c34)cc2)o1 (stereo not shown) [Compound P-0140, 4-(3-(4-(5-methyl-1,3,4-oxadiazol-2-yl)phenyl)pyrazolo[1,5-a]pyridin-4-yl)cyclohexane-1-carbonitrile] | 0.0001 to 0.1 | 0.0001 to 0.1 |
| O=C1NCCC12CCN(c1cccn3ncc(-c4ccc(OCCN5CCOCC5)cc4)c13)CC2 [Compound P-0135, 8-(3-(4-(2-morpholino-ethoxy)phenyl)pyrazolo[1,5-a]pyridin-4-yl)-2,8-diazaspiro[4.5]decan-1-one] | 0.1 to 1 | 0.1 to 1 |
| Cn1cc(-c2ccc(-c3cnc4cccc(C5=CCC(C#N)CC5)n34)cc2)cn1 (stereo not shown) [Compound P-0445, 4-(3-(4-(1-methyl-1H-pyrazol-4-yl)phenyl)imidazo[1,2-a]pyridin-5-yl)cyclohex-3-ene-1-carbonitrile] | 0.0001 to 0.1 | 0.0001 to 0.1 |
| CC(C)(C#N)Cn1cc(-c2ccc(-c3cnn4ccnc(C5CCC(C#N)CC5)c34)cc2)cn1 (stereo not shown) [Compound P-0046, (1s,4s)-4-(3-(4-(1-(2-cyano-2-methylpropyl)-1H-pyrazol-4-yl)phenyl)pyrazolo[1,5-a]pyrazin-4-yl)cyclohexane-1-carbonitrile] | 0.0001 to 0.1 | 0.0001 to 0.1 |
| CC(C)(O)Cn1cc(-c2ccc(-c3cnc4[nH]ccc4c3C3=CCC(C#N)CC3)cc2F)cn1 (stereo not shown) [Compound P-0132, 4-(5-(3-fluoro-4-(1-(2-hydroxy-2-methylpropyl)-1H-pyrazol-4-yl)phenyl)-1H-pyrrolo[2,3-b]pyridin-4-yl)cyclohex-3-ene-1-carbonitrile] | 0.0001 to 0.1 | 0.0001 to 0.1 |
| COc1ccc(-c2cnn3ccnc(C4=CCC(C#N)CC4)c23)cc1 (stereo not shown) [Compound P-0088, 4-(3-(4-methoxyphenyl)pyrazolo[1,5-a]pyrazin-4-yl)cyclohex-3-ene-1-carbonitrile] | 0.0001 to 0.1 | 0.0001 to 0.1 |
| CC(C)(O)Cn1cc(-c2ccc(-c3cnn4ccnc(C5CCC(C#N)CC5)c34)cc2)cn1 (stereo not shown) [Compound P-0064, (1r,4r)-4-(3-(4-(1-(2-hydroxy-2-methylpropyl)-1H-pyrazol-4-yl)phenyl)pyrazolo[1,5-a]pyrazin-4-yl)cyclohexane-1-carbonitrile] | 0.0001 to 0.1 | 0.0001 to 0.1 |
| Cc1cc(-c2ccc(-c3cnn4cccc(C#CC(C)(C)O)c34)cc2)n[nH]1 [Compound P-0234, 2-methyl-4-(3-(4-(5-methyl-1H-pyrazol-3-yl)phenyl)pyrazolo[1,5-a]pyridin-4-yl)but-3-yl-2-ol] | 0.1 to 1 | 0.0001 to 0.1 |
| Cn1cc(-c2ccc(-c3cnn4cccc(N5C6CCC5CC(C#N)C6)c34)cc2)cn1 (stereo not shown) [Compound P-0248, 8-(3-(4-(1-methyl-1H-pyrazol-4-yl)phenyl)pyrazolo[1,5-a]pyridin-4-yl)-8-azabicyclo[3.2.1]octane-3-carbonitrile] | 0.0001 to 0.1 | 0.0001 to 0.1 |
| Cn1ncc2cc(-c3cnn4ccnc(C5=CCC(C#N)CC5)c34)ccc21 (stereo not shown) [Compound P-0324, 4-(3-(1-methyl-1H-indazol-5-yl)pyrazolo[1,5-a]pyrazin-4-yl)cyclohex-3-ene-1-carbonitrile] | 0.0001 to 0.1 | 0.0001 to 0.1 |
| N#CC1CC=C(c2cccn3ncc(-c4ccc(OCCN5CCOCC5)cc4)c23)CC1 (stereo not shown) [Compound P-0183, 4-(3-(4-(2-morpholino-ethoxy)phenyl)pyrazolo[1,5-a]pyridin-4-yl)cyclohex-3-ene-1-carbonitrile] | 0.0001 to 0.1 | 0.0001 to 0.1 |
| N#CC1CC=C(c2c(-c3ccc(OCCOC4CCOCC4)cc3)cnc3[nH]ccc23)CC1 (stereo not shown) [Compound P-0172, 4-(5-(4-(2-((tetrahydro-2H-pyran-4-yl)oxy)ethoxy)phenyl)-1H-pyrrolo[2,3-b]pyridin-4-yl)cyclohex-3-ene-1-carbonitrile] | 0.0001 to 0.1 | 0.0001 to 0.1 |

| Compound | IC50 [1] [µM] | IC50 [2] [µM] |
| --- | --- | --- |
| COc1ccc2cc(-c3cnn4ccnc(C#CC(C)(C)O)c34)ccc2n1 [Compound P-0198, 4-(3-(2-methoxyquinolin-6-yl)pyrazolo[1,5-a]pyrazin-4-yl)-2-methylbut-3-yn-2-ol] | 0.1 to 1 | 0.1 to 1 |
| Cc1ccc2cc(-c3cnn4cccc(C#CC(C)(C)O)c34)ccc2n1 [Compound P-0281, 2-methyl-4-(3-(2-methylquinolin-6-yl)pyrazolo[1,5-a]pyridin-4-yl)but-3-yn-2-ol] | 0.1 to 1 | 0.1 to 1 |
| Cn1cc(-c2ccc(-c3cnn4ccnc(C#CC(C)(C)C(N)=O)c34)cc2)cn1 [Compound P-0003, 2,2-dimethyl-4-(3-(4-(1-methyl-1H-pyrazol-4-yl)phenyl)pyrazolo[1,5-a]pyrazin-4-yl)but-3-ynamide] | 0.0001 to 0.1 | 0.0001 to 0.1 |
| CS(=O)(=O)Nc1ccc2cc(-c3cnn4cccc(C5=CCC(C#N)CC5)c34)ccc2n1 (stereo not shown) [Compound P-0150, N-(6-(4-(4-cyanocyclohex-1-en-1-yl)pyrazolo[1,5-a]pyridin-3-yl)quinolin-2-yl)methanesulfonamide] | 0.0001 to 0.1 | 0.0001 to 0.1 |
| N#CC1CCN(c2cccn3ncc(-c4ccc(OCCCN5CCCCC5)cc4)c23)CC1 [Compound P-0260, 1-(3-(4-(3-(piperidin-1-yl)propoxy)phenyl)pyrazolo[1,5-a]pyridin-4-yl)piperidine-4-carbonitrile] | 0.1 to 1 | 0.1 to 1 |
| CC(C)(O)Cn1cc2cc(-c3cnc4[nH]ccc4c3C3=CCC(C#N)CC3)ccc2n1 (stereo not shown) [Compound P-0112, 4-(5-(2-(2-hydroxy-2-methylpropyl)-2H-indazol-5-yl)-1H-pyrrolo[2,3-b]pyridin-4-yl)cyclohex-3-ene-1-carbonitrile] | 0.0001 to 0.1 | 0.1 to 1 |
| FC(F)n1cc(-c2ccc(-c3cnc4cccc(OC5COC5)n34)cc2)cn1 [Compound P-0284, 3-(4-(1-(difluoromethyl)-1H-pyrazol-4-yl)phenyl)-5-(oxetan-3-yloxy)imidazo[1,2-a]pyridine] | 1 to 10 | 1 to 10 |
| N#CC1CC=C(c2nccn3ncc(-c4ccc(OCC(O)CN5CCCCC5)cc4)c23)CC1 (stereo not shown) [Compound P-0084, 4-(3-(4-(2-hydroxy-3-(piperidin-1-yl)propoxy)phenyl)pyrazolo[1,5-a]pyrazin-4-yl)cyclohex-3-ene-1-carbonitrile] | 0.0001 to 0.1 | 0.0001 to 0.1 |
| N#CC1CC=C(c2nccn3ncc(-c4ccc(OCCCN5CCOCC5)cc4)c23)CC1 (stereo not shown) [Compound P-0130, 4-[3-[4-(3-morpholinopropoxy)phenyl]pyrazolo[1,5-a]pyrazin-4-yl]cyclohex-3-ene-1-carbonitrile] | 0.0001 to 0.1 | 0.0001 to 0.1 |
| Cn1cc(-c2ccc(-c3cnn4ccnc(C5CCC(C#N)CC5)c34)cc2)cn1 (stereo not shown) [Compound P-0059, (1s,4s)-4-(3-(4-(1-methyl-1H-pyrazol-4-yl)phenyl)pyrazolo[1,5-a]pyrazin-4-yl)cyclohexane-1-carbonitrile] | 0.0001 to 0.1 | 0.0001 to 0.1 |
| Cc1nn(C)cc1-c1ccc(-c2cnn3cccc(C#CC(C)(C)O)c23)cc1 [Compound P-0311, 4-(3-(4-(1,3-dimethyl-1H-pyrazol-4-yl)phenyl)pyrazolo[1,5-a]pyridin-4-yl)-2-methylbut-3-yn-2-ol] | 0.0001 to 0.1 | 0.1 to 1 |
| N#CC1CC=C(c2cccn3ncc(-c4ccc(OCCN5CCCCC5)cc4)c23)CC1 (stereo not shown) [Compound P-0181, 4-(3-(4-(2-(piperidin-1-yl)ethoxy)phenyl)pyrazolo[1,5-a]pyridin-4-yl)cyclohex-3-ene-1-carbonitrile] | 0.0001 to 0.1 | 0.0001 to 0.1 |
| CC(C)(O)Cn1cc(-c2ccc(-c3cnn4ccnc(C5CCC(C#N)CC5)c34)cn2)cn1 (stereo not shown) [Compound P-0459, (1s,4s)-4-(3-(6-(1-(2-hydroxy-2-methylpropyl)-1H-pyrazol-4-yl)pyridin-3-yl)pyrazolo[1,5-a]pyrazin-4-yl)cyclohexane-1-carbonitrile] | 0.0001 to 0.1 | 0.0001 to 0.1 |
| N#CC1CCN(c2cccn3ncc(-c4ccc(OCC(O)CN5CCOCC5)cc4)c23)CC1 (stereo not shown) [Compound P-0262, 1-(3-(4-(2-hydroxy-3-morpholino-propoxy)phenyl)pyrazolo[1,5-a]pyridin-4-yl)piperidine-4-carbonitrile] | 0.0001 to 0.1 | 0.0001 to 0.1 |
| N#CC1CC=C(c2nccn3ncc(-c4ccnc(NC5CCCC5)c4)c23)CC1 (stereo not shown) [Compound P-0074] | 0.1 to 1 | 0.1 to 1 |
| Cc1ccc2cc(-c3cnn4ccnc(C5CCC(C#N)CC5)c34)ccc2n1 (stereo not shown) [Compound P-0187, 4-(3-(2-methylquinolin-6-yl)pyrazolo[1,5-a]pyrazin-4-yl)cyclohexane-1-carbonitrile] | 0.0001 to 0.1 | 0.0001 to 0.1 |
